# Measurements published in publication PMC8228121, “Super-Cationic Peptide Dendrimers—Synthesis and Evaluation as Antimicrobial Agents” (Antibiotics, 2021).
# Bridge positions count the residues as written; N and C are the ends. Square brackets hold non-standard residues; d marks the D form. Side chains are listed from the residue outwards. Peptide text beside a SMILES is read from it. I, II: the chains in the order shown. Orn = NCCC[C@H](N)C(=O)O
# Legend:
# B. subtilis ATCC 6051 = experiment: microbe, parasite or virus in culture; assay type: cell-based, Bacillus subtilis; details: ATCC 6051
# Procedure: (§1) Clinical isolates of CRE, MRSA and VRE were obtained from Lancet Laboratories, Durban, South Africa, with approval BE394/15 from the Biomedical Research Ethical Committee of the University of KwaZulu-Natal. Five reference strains of bacteria, namely Escherichia coli ATCC 25922, Pseudomonas aeruginosa ATCC 27853, Enterococcus faecium ATCC 35667, Staphylococcus aureus ATCC 29213 and Bacillus subtilis ATCC 6051 were supplied by the American Type Culture Collection (ATCC).
# (§2) MIC values were determined by the broth microdilution method and the significance of the values obtained was interpreted following the guidelines of the Clinical and Laboratory Standards for Antimicrobial Susceptibility Testing.. The effect of human serum on the antimicrobial effect of the molecules tested was determined in a similar way to the MIC method used above in a solution of 50% human serum plus Mueller–Hinton broth.
# S. aureus = experiment: Effect on bacterial growth curves; assay type: cell-based; details: at MIC, ½ MIC and ¼ MIC
# Procedure: (§3) The study of the growth dynamic of the S. aureus, E. coli and P.aeruginosa strains against CAMPDs were assayed with a starting inoculum of 10^6–10^8 CFU/mL in a 10 mL specific falcon tube. The experiment was performed by a real-time reverse-spin bioreactor RTS-1 (Biosan SIA, Riga, Latvia) that applies non-invasive, mechanically driven rotation; thus, the cell suspension is mixed efficiently, mixing and oxygening the culture at 37 °C. Cell growth kinetics were recorded non-invasively in real time from data obtained from a near-infrared optical system, every 15 min.
# P. aeruginosa [1] = experiment: Effect on bacterial growth curves; assay type: cell-based
# Procedure: as §3
# E. coli = experiment: Effect on bacterial growth curves; assay type: cell-based; details: irrespective of concentration (MIC, ½ MIC and ¼ MIC)
# Procedure: as §3
# MTT cytotoxicity assay = assay type: cell-based, human; details: human, HepG2 cells, HepG2, 24 h exposure
# Procedure: (§4) Cell viability was evaluated using the colorimetric MTT assay [21]. Human hepatocarcinoma (HepG2) cells and human embryonic kidney 293 (HEK-293) cells used in the drug toxicity assays were obtained from Cellonex (Johannesburg, South Africa). Viable HepG2 and HEK293 cells (20,000 cells/well) were seeded into a 96-well microtiter plate (200 µL) and allowed to attach overnight. The cells were exposed to varying concentrations of the peptides for 24 h. After removal of the treatment medium, 20 µL of MTT salt solution (5 mg/mL in 0.1M phosphate buffer saline (PBS)) and 100 µL of complete cell culture medium (CCM) were added to each well. After a 4 h (37 °C) incubation, the MTT salt solution was discarded and 100 μL of dimethyl sulphoxide (DMSO) were added to each well (1 h, 37 °C). The optical density of the solubilized formazan product was measured at 570 nm (reference λ of 690 nm) using a Bio-tek μQuant spectrophotometer (Winooski, VT, USA). […] GraphPad Prism (V5) (La Jolla, CA, USA) was used to obtain the half maximum inhibitory concentration (IC50) for each compound.
# E. faecium ATCC 35667 = experiment: microbe, parasite or virus in culture; assay type: cell-based, Enterococcus faecium; details: ATCC 35667
# Procedure: as §1, §2
# in vitro = details: human
# Procedure: as §4
# P. aeruginosa ATCC 27853 = experiment: microbe, parasite or virus in culture; assay type: cell-based, Pseudomonas aeruginosa; details: ATCC 27853
# Procedure: as §1, §2
# E. coli ATCC 25822 = experiment: microbe, parasite or virus in culture; assay type: cell-based, Escherichia coli; details: ATCC 25822
# Procedure: as §1, §2
# [2] = tested on: MRSA (methicillin-resistant S. aureus) isolates; experiment: microbe, parasite or virus in culture; assay type: cell-based; details: methicillin-resistant ) isolates
# Procedure: as §1, §2
# S. aureus ATCC 29213 = experiment: microbe, parasite or virus in culture; assay type: cell-based, Staphylococcus aureus; details: ATCC 29213
# Procedure: as §1, §2
# P. aeruginosa [3] = experiment: Time–kill curves; assay type: cell-based
# Procedure: Killing curve assays were performed with a starting inoculum of 6 × 10^6 CFU/mL. […] Antimicrobials were added to 5 mL of bacteria in the exponential phase of growth and incubated at 37 °C with shaking. Samples were obtained aseptically at 0, 1, 2, 4, 6 and 24 h, diluted in Ringer 1/4 and plated on TSA for colony counting. The response of microbial strains to a single antimicrobial was determined by lowering logarithms of viable bacteria. In accordance with Lora-Tamayo et al., an antimicrobial was considered active when a reduction of ≥1 log10 relative to the initial inoculum was observed.
# HepG2 cells = experiment: MTT cytotoxicity assay; assay type: cell-based, human; details: HepG2, range of concentrations tested
# Procedure: as §4
# Procedure for HEK293 cells: as §4
SMILES,MBC (B. subtilis ATCC 6051),MIC (B. subtilis ATCC 6051),effect on growth curve (S. aureus),effect on growth curve (E. coli),MBC (E. faecium ATCC 35667),MIC (E. faecium ATCC 35667),IC50 at 24 h (in vitro),MBC (P. aeruginosa ATCC 27853),MIC (P. aeruginosa ATCC 27853),MBC (E. coli ATCC 25822),MIC (E. coli ATCC 25822),MIC [2],MBC (S. aureus ATCC 29213),MIC (S. aureus ATCC 29213),other results
"CC(C)C[C@H](NC(=O)[C@H](CC(C)C)NC(=O)[C@H](CCCN)NC(=O)[C@H](CC(C)C)NC(=O)[C@H](CC(C)C)NC(=O)[C@H](CCCCNC(=O)[C@H](CCCN)NC(=O)[C@H](CC(C)C)NC(=O)[C@H](CCCN)NC(=O)[C@H](CCCCNC(=O)[C@H](CCCN)NC(=O)[C@H](CC(C)C)NC(=O)[C@@H](N)CCCN)NC(=O)[C@H](CCCN)NC(=O)[C@H](CC(C)C)NC(=O)[C@@H](N)CCCN)NC(=O)[C@H](CCCN)NC(=O)[C@H](CC(C)C)NC(=O)[C@H](CCCN)NC(=O)[C@H](CCCCNC(=O)[C@H](CCCN)NC(=O)[C@H](CC(C)C)NC(=O)[C@@H](N)CCCN)NC(=O)[C@H](CCCN)NC(=O)[C@H](CC(C)C)NC(=O)[C@@H](N)CCCN)C(N)=O [G2OLO-L2OL2, (OLO)4(KOLO)2KLLOLL-NH2] (I: H-[Orn]L[Orn]K([Orn-Leu-Orn])[Orn]L[Orn]KLL[Orn]LL-NH2 / II: H-[Orn]L[Orn]K([Orn-Leu-Orn])[Orn]L[Orn]; amide I:8-II:C)",32 µg/mL,32 µg/mL,negligible,abolished bacterial growth,8 µg/mL,8 µg/mL,199 µg/mL,32 µg/mL,32 µg/mL,32 µg/mL,32 µg/mL,64 µg/mL,32 µg/mL,32 µg/mL,effect on growth curve (P. aeruginosa [1]; at the MIC): abolished growth; delay in growth (P. aeruginosa [1]; at ¼ MIC): ~2 h; delay in growth (P. aeruginosa [1]; at ½ MIC): 10 h; IC50 at 24 h (MTT cytotoxicity assay): 141 µg/mL; time–kill: effect on bacterial population (P. aeruginosa [3]; at MIC): killed all bacteria within the first hour of exposure and regrowth was observed after the second hour; time–kill: effect on bacterial population (P. aeruginosa [3]; at ¼ MIC): the bacterial population was not totally eliminated; time–kill: effect on bacterial population (P. aeruginosa [3]; at ½ MIC): the bacterial population was not totally eliminated
"CC(C)C[C@H](NC(=O)[C@H](CC(C)C)NC(=O)[C@H](CCCN)NC(=O)[C@H](CC(C)C)NC(=O)[C@H](CC(C)C)NC(=O)[C@H](CCCCNC(=O)[C@H](CCCN)NC(=O)[C@H](CC(C)C)NC(=O)[C@@H](N)CCCN)NC(=O)[C@H](CCCN)NC(=O)[C@H](CC(C)C)NC(=O)[C@@H](N)CCCN)C(N)=O [G1OLO-L2OL2, (OLO)2KLLOLL-NH2] (H-[Orn]L[Orn]K([Orn-Leu-Orn])LL[Orn]LL-NH2)",32 µg/mL,32 µg/mL,negligible,abolished bacterial growth,16 µg/mL,16 µg/mL,470 µg/mL,16 µg/mL,16 µg/mL,8 µg/mL,8 µg/mL,64 µg/mL,64 µg/mL,64 µg/mL,"delay in growth (P. aeruginosa [1]; at the MIC): approximately 6 h; effect on growth curve (P. aeruginosa [1]; at ½ MIC or ¼ MIC): no effect; toxicity (MTT) (HEK293 cells): did not show toxicity; time–kill: effect on bacterial population (P. aeruginosa [3]; any concentration tested (MIC, ½ MIC, ¼ MIC)): had no effect at any concentration tested"
"CC(C)C[C@H](NC(=O)[C@H](CC(C)C)NC(=O)[C@H](CCCCN)NC(=O)[C@H](CC(C)C)NC(=O)[C@H](CC(C)C)NC(=O)[C@H](CCCCNC(=O)[C@H](CCCCN)NC(=O)[C@H](CC(C)C)NC(=O)[C@@H](N)CCCCN)NC(=O)[C@H](CCCCN)NC(=O)[C@H](CC(C)C)NC(=O)[C@@H](N)CCCCN)C(N)=O [G1KLK-L2KL2, (KLK)2KLLKLL-NH2] (H-KLKK([Lys-Leu-Lys])LLKLL-NH2)",64 µg/mL,64 µg/mL,–,–,–,>128 µg/mL,–,32 µg/mL,32 µg/mL,32 µg/mL,32 µg/mL,–,128 µg/mL,128 µg/mL,toxicity (MTT) (HepG2 cells): did not show toxicity at the range of concentrations tested
